System: K98450-129-R-PDC complex spheroid growth, percent test/control
Assay: Anticancer human tumor K98450-129-R-PDC patient-derived colon adenocarcinoma cell line growth inhibition [RAS]
Conditions: for IC50: curve of first compound; for viability, T/C: stronger effect = lower value
In short: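 Multi-cell-type spheroids: tumor cells plus HUVEC endothelial cells and mesenchymal stem cells. RAS-pathway inhibitors were combined with targeted agents, each dosed in half-log steps down from clinical Cmax, or from 10 microM when Cmax was unknown.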
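Further: spheroids exposed to agents for seven days before the viability readout.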
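Wherever viability, T/C is given: luminescence used as a proxy for viable cell amount.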

`NC1c2ccccc2OC12CCN(c1cnc3c(N4CCCc5ncccc54)n[nH]c3n1)CC2` (stereo not given) + CCn1c(-c2cc(N3CCN(C)CC3)cnc2C(C)OC)c2c3cc(ccc31)-c1csc(n1)CC(NC(=O)C1CC1C)C(=O)N1CCCC(N1)C(=O)OCC(C)(C)C2 showed an IC50 (second compound 0.000949 µM) of 116 nM, an IC50 (second compound 0.003 µM) of 63.1 nM and an IC50 (second compound 0.00949 µM) of under 31.6 nM. For the same compound, the IC50 (second compound 0.03 µM) was under 31.6 nM, the IC50 (second compound 0.0949 µM) was under 31.6 nM and the IC50 (second compound 0.3 µM) was under 31.6 nM. It also gave a viability, T/C (second compound 0.000949 µM, first compound 0.0316 µM) of 85.1%, a viability, T/C (second compound 0.000949 µM, first compound 0.1 µM) of 54.5% and a viability, T/C (second compound 0.000949 µM, first compound 0.316 µM) of 20.4%. It also gave a viability, T/C (second compound 0.000949 µM, first compound 1 µM) of 8.29%, a viability, T/C (second compound 0.000949 µM, first compound 3.16 µM) of 8.32% and a viability, T/C (second compound 0.000949 µM, first compound 10 µM) of 8.57%. For the same compound, the viability, T/C (second compound 0.003 µM, first compound 0.0316 µM) was 69.2%, the viability, T/C (second compound 0.003 µM, first compound 0.1 µM) was 37.2% and the viability, T/C (second compound 0.003 µM, first compound 0.316 µM) was 8.71%. It also gave a viability, T/C (second compound 0.003 µM, first compound 1 µM) of 5.81%, a viability, T/C (second compound 0.003 µM, first compound 3.16 µM) of 5.89% and a viability, T/C (second compound 0.003 µM, first compound 10 µM) of 8.17%. For the same compound, the viability, T/C (second compound 0.00949 µM, first compound 0.0316 µM) was 44.1%, the viability, T/C (second compound 0.00949 µM, first compound 0.1 µM) was 11.7% and the viability, T/C (second compound 0.00949 µM, first compound 0.316 µM) was 6.79%. For the same compound, the viability, T/C (second compound 0.00949 µM, first compound 1 µM) was 5.19%, the viability, T/C (second compound 0.00949 µM, first compound 3.16 µM) was 5.86% and the viability, T/C (second compound 0.00949 µM, first compound 10 µM) was 7.32%. It also gave a viability, T/C (second compound 0.03 µM, first compound 0.0316 µM) of 15.4%, a viability, T/C (second compound 0.03 µM, first compound 0.1 µM) of 9.39% and a viability, T/C (second compound 0.03 µM, first compound 0.316 µM) of 6.76%. The viability, T/C (second compound 0.03 µM, first compound 1 µM) was 6.09%, the viability, T/C (second compound 0.03 µM, first compound 3.16 µM) was 6.31% and the viability, T/C (second compound 0.03 µM, first compound 10 µM) was 7.21%. For the same compound, the viability, T/C (second compound 0.0949 µM, first compound 0.0316 µM) was 10.1%, the viability, T/C (second compound 0.0949 µM, first compound 0.1 µM) was 7.59% and the viability, T/C (second compound 0.0949 µM, first compound 0.316 µM) was 5.43%. It also gave a viability, T/C (second compound 0.0949 µM, first compound 1 µM) of 4.79%, a viability, T/C (second compound 0.0949 µM, first compound 3.16 µM) of 4.55% and a viability, T/C (second compound 0.0949 µM, first compound 10 µM) of 7.03%. The viability, T/C (second compound 0.3 µM, first compound 0.0316 µM) was 9.29%, the viability, T/C (second compound 0.3 µM, first compound 0.1 µM) was 7.37% and the viability, T/C (second compound 0.3 µM, first compound 0.316 µM) was 5.01%. The viability, T/C (second compound 0.3 µM, first compound 1 µM) was 4.13%, the viability, T/C (second compound 0.3 µM, first compound 3.16 µM) was 4.98% and the viability, T/C (second compound 0.3 µM, first compound 10 µM) was 5.88%.

For `CCn1c(-c2cccnc2C(C)OC)c2c3cc(ccc31)N1CCOC(CC(NC(=O)C(C(C)C)N(C)C(=O)C3(F)CCN(C(=O)C#CC(C)(C)N(C)C)CC3)C(=O)N3CCCC(N3)C(=O)OCC(C)(C)C2)C1` (stereo not given), the viability, T/C (compound 0.000949 µM) was 78.5% [middle of 8 runs], the viability, T/C (compound 0.003 µM) was 63.4% [middle of 8 runs] and the viability, T/C (compound 0.00949 µM) was 47.8% [middle of 8 runs]. The viability, T/C (compound 0.03 µM) was 43.1% [middle of 8 runs], the viability, T/C (compound 0.0949 µM) was 41.6% [middle of 8 runs] and the viability, T/C (compound 0.3 µM) was 35.3% [middle of 8 runs].

`CC1(C)CCC(Nc2ncc(C(F)(F)F)c(-c3c[nH]c4c(P(C)(C)=O)c(C#N)ccc34)n2)CN1` (stereo not given) + CCn1c(-c2cc(N3CCN(C)CC3)cnc2C(C)OC)c2c3cc(ccc31)-c1csc(n1)CC(NC(=O)C1CC1C)C(=O)N1CCCC(N1)C(=O)OCC(C)(C)C2 gave an IC50 (second compound 0.000949 µM) of over 300 nM, an IC50 (second compound 0.003 µM) of over 300 nM and an IC50 (second compound 0.00949 µM) of over 300 nM. The IC50 (second compound 0.03 µM) was over 300 nM, the IC50 (second compound 0.0949 µM) was under 0.949 nM and the IC50 (second compound 0.3 µM) was under 0.949 nM. It also gave a viability, T/C (second compound 0.000949 µM, first compound 0.000949 µM) of 100%, a viability, T/C (second compound 0.000949 µM, first compound 0.003 µM) of 82.2% and a viability, T/C (second compound 0.000949 µM, first compound 0.00949 µM) of 96.2%. The viability, T/C (second compound 0.000949 µM, first compound 0.03 µM) was 89.7%, the viability, T/C (second compound 0.000949 µM, first compound 0.0949 µM) was 80.8% and the viability, T/C (second compound 0.000949 µM, first compound 0.3 µM) was 79.5%. It also gave a viability, T/C (second compound 0.003 µM, first compound 0.000949 µM) of 81.2%, a viability, T/C (second compound 0.003 µM, first compound 0.003 µM) of 83.2% and a viability, T/C (second compound 0.003 µM, first compound 0.00949 µM) of 85.6%. For the same compound, the viability, T/C (second compound 0.003 µM, first compound 0.03 µM) was 94.6%, the viability, T/C (second compound 0.003 µM, first compound 0.0949 µM) was 77.2% and the viability, T/C (second compound 0.003 µM, first compound 0.3 µM) was 69.4%. It also gave a viability, T/C (second compound 0.00949 µM, first compound 0.000949 µM) of 75.2%, a viability, T/C (second compound 0.00949 µM, first compound 0.003 µM) of 77.1% and a viability, T/C (second compound 0.00949 µM, first compound 0.00949 µM) of 76.7%. The viability, T/C (second compound 0.00949 µM, first compound 0.03 µM) was 77.8%, the viability, T/C (second compound 0.00949 µM, first compound 0.0949 µM) was 81.7% and the viability, T/C (second compound 0.00949 µM, first compound 0.3 µM) was 60.2%. For the same compound, the viability, T/C (second compound 0.03 µM, first compound 0.000949 µM) was 54.1%, the viability, T/C (second compound 0.03 µM, first compound 0.003 µM) was 49.5% and the viability, T/C (second compound 0.03 µM, first compound 0.00949 µM) was 51.2%. For the same compound, the viability, T/C (second compound 0.03 µM, first compound 0.03 µM) was 61.7%, the viability, T/C (second compound 0.03 µM, first compound 0.0949 µM) was 63.1% and the viability, T/C (second compound 0.03 µM, first compound 0.3 µM) was 43.8%. It also gave a viability, T/C (second compound 0.0949 µM, first compound 0.000949 µM) of 24.6%, a viability, T/C (second compound 0.0949 µM, first compound 0.003 µM) of 26.8% and a viability, T/C (second compound 0.0949 µM, first compound 0.00949 µM) of 30.6%. It also gave a viability, T/C (second compound 0.0949 µM, first compound 0.03 µM) of 35.1%, a viability, T/C (second compound 0.0949 µM, first compound 0.0949 µM) of 40.3% and a viability, T/C (second compound 0.0949 µM, first compound 0.3 µM) of 37%. For the same compound, the viability, T/C (second compound 0.3 µM, first compound 0.000949 µM) was 12.7%, the viability, T/C (second compound 0.3 µM, first compound 0.003 µM) was 14.7% and the viability, T/C (second compound 0.3 µM, first compound 0.00949 µM) was 17.9%. The viability, T/C (second compound 0.3 µM, first compound 0.03 µM) was 23.5%, the viability, T/C (second compound 0.3 µM, first compound 0.0949 µM) was 28.4% and the viability, T/C (second compound 0.3 µM, first compound 0.3 µM) was 25.2%.
